According to patent US20250215029A1 (Recludix Pharma, Inc., priority 2022, published 2025):

Columns and labels:
[1] = target: T1, Recombinant STAT3 protein (STAT3 (G127-I722)) (Homo sapiens, UniProt P40763); test: STAT3 Fluorescence Polarization (FP) Assay; format: binding; settings: STAT3 (G127-I722) 25 nM, probe 5-FAM-GpYLPQTV-NH2 2 nM, 45-minute incubation; read-out: STAT3 (FP assay IC50 class)
T1 construct: Recombinant STAT3 protein (STAT3 (G127-I722))
Method in brief: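 Displacement of a fluorescent phosphotyrosine peptide (5-FAM-GpYLPQTV-NH2, 2 nM) from 25 nM recombinant STAT3 G127-I722 was monitored by FP after 45 min at room temperature.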

[2] = target: T2, Recombinant STAT6 protein (STAT6 (W123-T658)) (Homo sapiens, UniProt P42226); test: STAT6 Fluorescence Polarization (FP) Assay; format: binding; settings: STAT6 (W123-T658) 250 nM, probe 5-FAM-Ap[…]-NH2 2 nM, 45-minute incubation; read-out: STAT6 (FP assay IC50 class)
T2 construct: Recombinant STAT6 protein (STAT6 (W123-T658))
T2 sequence (P42226 123-658): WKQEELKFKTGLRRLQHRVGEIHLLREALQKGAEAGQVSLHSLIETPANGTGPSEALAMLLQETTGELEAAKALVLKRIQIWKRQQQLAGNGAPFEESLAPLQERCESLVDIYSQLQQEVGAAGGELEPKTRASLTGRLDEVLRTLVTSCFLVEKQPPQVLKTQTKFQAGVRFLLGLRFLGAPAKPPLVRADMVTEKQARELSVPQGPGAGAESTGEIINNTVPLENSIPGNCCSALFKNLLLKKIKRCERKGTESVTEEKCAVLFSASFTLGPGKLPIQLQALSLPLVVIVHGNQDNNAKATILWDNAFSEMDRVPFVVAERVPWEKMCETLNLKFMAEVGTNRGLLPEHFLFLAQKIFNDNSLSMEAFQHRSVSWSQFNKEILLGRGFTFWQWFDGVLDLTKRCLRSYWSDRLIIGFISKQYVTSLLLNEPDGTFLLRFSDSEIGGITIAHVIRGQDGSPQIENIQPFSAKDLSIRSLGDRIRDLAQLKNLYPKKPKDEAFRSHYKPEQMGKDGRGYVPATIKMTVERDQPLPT
Method in brief: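 Competitive FP binding: recombinant STAT6 (W123-T658) at 250 nM, labeled phosphotyrosine peptide at 2 nM, compounds at 1% DMSO, 45 min at RT before reading. IC50 values were obtained from nonlinear regression of mP versus log concentration.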

T1 sequence (P40763 127-722): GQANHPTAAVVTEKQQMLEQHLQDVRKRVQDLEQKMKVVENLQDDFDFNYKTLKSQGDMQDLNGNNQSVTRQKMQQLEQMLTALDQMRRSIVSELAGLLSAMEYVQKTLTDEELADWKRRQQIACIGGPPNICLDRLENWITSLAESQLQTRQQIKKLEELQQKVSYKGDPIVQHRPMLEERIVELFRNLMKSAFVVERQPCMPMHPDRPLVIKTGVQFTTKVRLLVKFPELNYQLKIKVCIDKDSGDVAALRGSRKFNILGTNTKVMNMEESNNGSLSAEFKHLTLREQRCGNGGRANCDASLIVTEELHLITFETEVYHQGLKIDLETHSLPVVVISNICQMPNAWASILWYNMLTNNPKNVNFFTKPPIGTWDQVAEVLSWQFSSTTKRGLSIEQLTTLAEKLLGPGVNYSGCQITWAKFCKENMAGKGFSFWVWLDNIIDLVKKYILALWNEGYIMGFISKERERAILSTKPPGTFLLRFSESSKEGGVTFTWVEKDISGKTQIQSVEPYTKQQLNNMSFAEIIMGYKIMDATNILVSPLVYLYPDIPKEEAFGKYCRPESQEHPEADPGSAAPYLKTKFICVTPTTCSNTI

## N#C[C@@H]1[C@@H](c2ccccc2)CN(C(=O)[C@@H]2CC[C@@H]3CCCC[C@H](NC(=O)c4cc5cc([C@@H](F)P(=O)(O)O)ccc5s4)C(=O)N32)C12CC2 (single isomer, unassigned) [Compound 923]
[1]
  IC50: 1 to 10 µM
[2]
  IC50: ≤ 0.3 µM

## CO[C@H]1CCN(c2ccncc2C2CN(C(=O)[C@@H]3CC[C@@H]4CCC[C@H](NC(=O)c5cc6cc(CP(=O)(O)O)ccc6s5)C(=O)N43)C2)C1 [Compound 686, ((2-(((3S,6S,9aS)-3-(3-(4-((S)-3-methoxypyrrolidin-1-yl)pyridin-3-yl)azetidine-1-carbonyl)-5-oxooctahydro-1H-pyrrolo[1,2-a]azepin-6-yl)carbamoyl)benzo [b]thiophen-5-yl)methyl) phosphonic acid]
[1]
  IC50: < 0.1 µM
[2]
  IC50: 3 to 30 µM

## O=C(N[C@H]1CCCC[C@H]2CC[C@@H](C(=O)N[C@H]3COCC3F)N2C1=O)c1cc2cc(C(F)(F)P(=O)(O)O)ccc2s1 (relative stereo) [Compound 1109, (difluoro(2-(((3S,6S,10aS)-3-(((rel-trans)-4-fluorotetrahydrofuran-3-yl)carbamoyl)-5-oxodecahydropyrrolo[1,2-a]azocin-6-yl)carbamoyl)benzo[b]thiophen-5-yl)methyl)phosphonic acid]
[1]
  IC50: 0.1 to 1 µM
[2]
  IC50: 0.3 to 3 µM

## Cc1nc2cc(CNC(=O)[C@@H]3CC[C@@H]4CCC[C@H](NC(=O)c5cc6cc(C(F)(F)P(=O)(O)O)ccc6s5)C(=O)N43)ccc2[nH]1 [Compound 1116, (difluoro(2-(((3S,6S,9aS)-3-(((2-methyl-1H-benzo[d]imidazol-5-yl)methyl)carbamoyl)-5-oxooctahydro-1H-pyrrolo[1,2-a]azepin-6-yl)carbamoyl)benzo[b]thiophen-5-yl)methyl)phosphonic acid]
[1]
  IC50: 0.1 to 1 µM
[2]
  IC50: 3 to 30 µM

## O=C(N[C@H]1CCCC[C@H]2CC[C@@H](C(=O)N3CCC(c4cc[nH]c(=O)c4)C3)N2C1=O)c1ccc2ccc(C(F)(F)P(=O)(O)O)cc2c1 (stereo partly drawn) [Compound 866, (difluoro(7-(((3S,6S,10aS)-5-oxo-3-(3-(2-oxo-1,2-dihydropyridin-4-yl)pyrrolidine-1-carbonyl)decahydropyrrolo[1,2-a]azocin-6-yl)carbamoyl)naphthalen-2-yl)methyl) phosphonic acid]
[1]
  IC50: 0.1 to 1 µM
[2]
  IC50: ≤ 0.3 µM

## C[C@H]1CC[C@H](NC(=O)c2ccc3ccc(CP(=O)(O)O)cc3c2)C(=O)N2[C@H](CC[C@H]2C(=O)N2CC(c3ccccc3)CC23CC3)C1 (stereo partly drawn) [Compound 888, ((7-(((3S,6S,9S,10aR)-9-methyl-5-oxo-3-(6-phenyl-4-azaspiro[2.4]heptane-4-carbonyl)decahydropyrrolo[1,2-a]azocin-6-yl)carbamoyl)naphthalen-2-yl)methyl) phosphonic acid]
[1]
  IC50: 1 to 10 µM
[2]
  IC50: 0.3 to 3 µM

## N#C[C@H]1CN(C(=O)[C@@H]2CC[C@@H]3CCCC[C@H](NC(=O)c4cc5cc(CP(=O)(O)O)ccc5s4)C(=O)N32)C[C@@H]1c1cc[nH]c(=O)c1 (single isomer, unassigned) [Compound 878]
[1]
  IC50: 1 to 10 µM
[2]
  IC50: 0.3 to 3 µM

## CNC(=O)N1CC[C@@H](NC(=O)[C@@H]2CC[C@@H]3CCCC[C@H](NC(=O)c4cc5cc(C(F)P(=O)(O)O)ccc5s4)C(=O)N32)C1 (stereo partly drawn) [Compound 530, (fluoro(2-(((3S,6S,10aS)-3-(((R)-1-(methylcarbamoyl)pyrrolidin-3-yl)carbamoyl)-5-oxodecahydropyrrolo[1,2-a]azocin-6-yl)carbamoyl)benzo[b]thiophen-5-yl)methyl)phosphonic acid]
[1]
  IC50: 0.1 to 1 µM
[2]
  IC50: 3 to 30 µM

## O=C(N[C@H]1CCCC[C@H]2CC[C@@H](C(=O)N3CC(NCC(F)F)(c4ccccn4)C3)N2C1=O)c1cc2cc(C(F)P(=O)(O)O)ccc2s1 (stereo partly drawn) [Compound 761, ((2-(((3S,6S,10aS)-3-(3-((2,2-difluoroethyl)amino)-3-(pyridin-2-yl)azetidine-1-carbonyl)-5-oxodecahydropyrrolo[1,2-a]azocin-6-yl)carbamoyl)benzo [b]thiophen-5-yl)fluoromethyl) phosphonic acid]
[1]
  IC50: < 0.1 µM
[2]
  IC50: 3 to 30 µM

## Cc1ccncc1C1CN(C(=O)[C@@H]2CC[C@@H]3CCC[C@H](NC(=O)c4cc5cc([C@@H](F)P(=O)(O)O)ccc5s4)C(=O)N32)C1 (single isomer, unassigned) [Compound 755]
[1]
  IC50: < 0.1 µM
[2]
  IC50: 3 to 30 µM

## O=C(N[C@@H]1C(=O)N2[C@@H](CCC[C@H]1C1CC1)CC[C@H]2C(=O)N1CC(c2cccnc2)C1)c1cc2cc(C(F)(F)P(=O)(O)O)ccc2s1 [Compound 233, ((2-(((3S,6S,7S,10aS)-7-cyclopropyl-5-oxo-3-(3-(pyridin-3-yl)azetidine-1-carbonyl)decahydropyrrolo[1,2-a]azocin-6-yl)carbamoyl)benzo[b]thiophen-5-yl)difluoromethyl)phosphonic acid]
[1]
  IC50: < 0.1 µM
[2]
  IC50: 3 to 30 µM

## COC[C@@H]1CCN1c1ncncc1C1CN(C(=O)[C@@H]2CC[C@@H]3CCC[C@H](NC(=O)c4cc5cc(CP(=O)(O)O)ccc5s4)C(=O)N32)C1 [Compound 675, ((2-(((3S,6S,9aS)-3-(3-(4-((S)-2-(methoxymethyl)azetidin-1-yl)pyrimidin-5-yl)azetidine-1-carbonyl)-5-oxooctahydro-1H-pyrrolo[1,2-a]azepin-6-yl)carbamoyl)benzo [b]thiophen-5-yl)methyl) phosphonic acid]
[1]
  IC50: < 0.1 µM
[2]
  IC50: 3 to 30 µM

## O=C(N[C@H]1CCCC[C@H]2CC[C@@H](C(=O)N3C(=O)N(c4cccnc4)C(=O)C34CC4)N2C1=O)c1ccc2ccc(CP(=O)(O)O)cc2c1 [Compound 893, ((7-(((3S,6S,10aS)-3-(5,7-dioxo-6-(pyridin-3-yl)-4,6-diazaspiro[2.4]heptane-4-carbonyl)-5-oxodecahydropyrrolo[1,2-a]azocin-6-yl)carbamoyl)naphthalen-2-yl)methyl) phosphonic acid]
[1]
  IC50: 1 to 10 µM
[2]
  IC50: 0.3 to 3 µM

## Cc1ccccc1C1CN(C(=O)[C@@H]2CC[C@@H]3CCC[C@H](NC(=O)c4cc5cc(C(F)(F)P(=O)(O)O)ccc5s4)C(=O)N32)C1 [Compound 778, (difluoro(2-(((3S,6S,9aS)-5-oxo-3-(3-(o-tolyl)azetidine-1-carbonyl)octahydro-1H-pyrrolo[1,2-a]azepin-6-yl)carbamoyl)benzo [b]thiophen-5-yl)methyl) phosphonic acid]
[1]
  IC50: < 0.1 µM
[2]
  IC50: 0.3 to 3 µM

## O=C(N[C@H]1CCC[C@H]2CC[C@@H](C(=O)N3CC(c4ccnc(N5CCOCC5)c4)C3)N2C1=O)c1cc2cc([C@@H](F)P(=O)(O)O)ccc2s1 (single isomer, unassigned) [Compound 712]
[1]
  IC50: 1 to 10 µM
[2]
  IC50: 3 to 30 µM

## CC1C[C@H]2CC[C@@H](C(=O)N3CC(c4cccnc4)C3)N2C(=O)[C@@H](NC(=O)c2cc3cc(C(F)(F)P(=O)(O)O)ccc3s2)C1 (stereo partly drawn) [Compound 759, (difluoro(2-(((3S,6S,9aR)-8-methyl-5-oxo-3-(3-(pyridin-3-yl)azetidine-1-carbonyl)octahydro-1H-pyrrolo[1,2-a]azepin-6-yl)carbamoyl)benzo [b]thiophen-5-yl)methyl) phosphonic acid]
[1]
  IC50: > 10 µM
[2]
  IC50: 0.3 to 3 µM

## CCOc1cc(C2CN(C(=O)[C@@H]3CC[C@@H]4CCC[C@H](NC(=O)c5cc6cc([C@@H](F)P(=O)(O)O)ccc6s5)C(=O)N43)C2)ccn1 (single isomer, unassigned) [Compound 709]
[1]
  IC50: 0.1 to 1 µM
[2]
  IC50: 3 to 30 µM

## O=C(N[C@H]1CCCC[C@H]2CC[C@@H](C(=O)N3CC(c4cccnc4)CC34CC4)N2C1=O)c1cc2cc(C(F)P(=O)(O)O)ccc2s1 (stereo partly drawn) [Compound 912, (fluoro(2-(((3S,6S,10aS)-5-oxo-3-(6-(pyridin-3-yl)-4-azaspiro[2.4]heptane-4-carbonyl)decahydropyrrolo[1,2-a]azocin-6-yl)carbamoyl)benzo [b]thiophen-5-yl)methyl) phosphonic acid]
[1]
  IC50: 1 to 10 µM
[2]
  IC50: ≤ 0.3 µM

## COc1c(F)cncc1C1CN(C(=O)[C@@H]2CC[C@@H]3CCC[C@H](NC(=O)c4cc5cc(C(F)P(=O)(O)O)ccc5s4)C(=O)N32)C1 (stereo partly drawn) [Compound 625, (fluoro(2-(((3S,6S,9aS)-3-(3-(5-fluoro-4-methoxypyridin-3-yl)azetidine-1-carbonyl)-5-oxooctahydro-1H-pyrrolo[1,2-a]azepin-6-yl)carbamoyl)benzo [b]thiophen-5-yl)methyl) phosphonic acid]
[1]
  IC50: 0.1 to 1 µM
[2]
  IC50: 3 to 30 µM
